Here are results for 1 substance from patent US7339026B2, “mda-9 protein” (The Trustees of Columbia University In the City of New York, priority 1996, dated 2008).

Test [1] has as its system mda-9 expression in FM516-SV cells. Description: mda-9 RNA expression by Northern blotting, densitometer comparison with GAPDH. Format: cell-based, human. As for the experimental part:
FIG. 2. Effects of IFN-β+MEZ on mda-9 expression in human melanoma cells and an SV40-immortalized human melanocyte cell line. The indicated cell line was grown in the presence or absence of IFN-β+MEZ (2000 U/ml+10 ng/ml) for 96 h and RNA was analyzed as described in FIG. 1.
Cell Lines and Culture Conditions. H0-1 is a melanotic melanoma cell line produced from a metastatic inguinal lymph node lesion from a person and was used between passages 150 and 175 (13,21,22). FM516-SV is a normal human melanocyte culture immortalized by the SV40 T-antigen gene (23). Additional melanoma cell lines established from patients with metastatic melanomas that were evaluated, include LO-1, SH-1, WM239, MeWo, SKMEL-p53 wt (containing a wild-type p53 gene) and SKMEL-p53 mut (containing a mutant p53 gene) (13,21,24). Cultures were grown at 37° C. in a 95% air 5% C02-humidified incubator in Dulbecco's modified Eagle's medium (DMEM) supplemented with 5 or 10% fetal bovine serum (Hyclone, Utah). […] Total cytoplasmic RNA was isolated at various time points and analyzed for mda-9 and GAPDH expression.
RNA Isolation, Northern Blotting and Southern Blotting of Genomic DNAs. […] RNA blots were quantitated by densitometric analysis using a Molecular Dynamics densitometer (Sunnyvale, Calif.) (34). […]

Test [2] deals with mda-9 expression in H0-1 cells. In words: mda-9 RNA expression by Northern blotting, equalized to GAPDH. Format: cell-based, human. The settings on record: H0-1. As for the experimental part:
FIG. 1. Temporal expression of mda-9 in H0-1 cells exposed to IFN-β+MEZ. RNAs were isolated from untreated and H0-1 cells treated with IFN-β+MEZ (2000 U/ml+10 ng/ml) for 0.25, 0.5, 1, 2, 4, 8, 12 and 24 h. Ten micrograms of total cellular RNA were separated on 1% agarose gel, transferred to nylon membranes, sequentially hybridized with an mda-9 and then a GAPDH probe, and then exposed to autoradiography.
FIG. 4. Effect of interferons on mda-9 expression in H0-1 cells. H0-1 cells were grown for 96 h in the absence or presence of IFN-α (100 and 1000 U/ml), IFN-β (100 and 1000 U/ml) or IFN-γ (100 U/ml) and RNA was analyzed as described in FIG. 1.
FIGS. 9A-9B. Temporal and dose kinetics of IFN-γ enhancement in mda-9 expression in H0-1 human melanoma cells. H0-1 cells were treated for the indicated time (FIG. 9A) and dose (FIG. 9B) of IFN-γ, RNA was then isolated and analyzed by Northern blotting. […] Replicate samples varied by ≦15%.
Cell Lines and Culture Conditions. H0-1 is a melanotic melanoma cell line produced from a metastatic inguinal lymph node lesion from a person and was used between passages 150 and 175 (13,21,22). FM516-SV is a normal human melanocyte culture immortalized by the SV40 T-antigen gene (23). Additional melanoma cell lines established from patients with metastatic melanomas that were evaluated, include LO-1, SH-1, WM239, MeWo, SKMEL-p53 wt (containing a wild-type p53 gene) and SKMEL-p53 mut (containing a mutant p53 gene) (13,21,24). Cultures were grown at 37° C. in a 95% air 5% C02-humidified incubator in Dulbecco's modified Eagle's medium (DMEM) supplemented with 5 or 10% fetal bovine serum (Hyclone, Utah). Cultures were maintained in the logarithmic phase of growth by subculturing (1:5 or 1:10) prior to confluence approximately every 4 to 7 d. For determining steady-state RNA expression, cultures were seeded at 1.5×10^6 cells per 10-cm tissue culture plate, and 24 h later the medium was changed without inducers or with IFN-β (2000 U/ml), MEZ (10 ng/ml) or IFN-β+MEZ (2000 U/ml+10 ng/ml). Total cytoplasmic RNA was isolated at various time points and analyzed for mda-9 and GAPDH expression.
RNA Isolation, Northern Blotting and Southern Blotting of Genomic DNAs. Total cellular RNA was isolated by the guanidinium/phenol procedure and Northern blotting was performed as described (30-32). Ten μg of RNA were denatured with glyoxal/dimethyl sulfoxide (DMSO), electrophoresed on 1.0% agarose gels, transferred to nylon membranes and hybridized to a ^32P-labeled mda-9 probe and then after stripping the membranes were hybridized to a ^32P-labeled rat GAPDH probe (33) as described previously (30-32). […] RNA blots were quantitated by densitometric analysis using a Molecular Dynamics densitometer (Sunnyvale, Calif.) (34). […]

Some results are limits rather than exact numbers.

For “IFN-γ: Recombinant human IFN-γ (type II, immune interferon)”, the “dose giving maximum enhancing effects on mda-9 expression” value in test [1] (IFN-γ dose-response) and in test [2] (IFN-γ dose-response) was 10 U/ml throughout. Further, the “low dose at which mda-9 expression is elevated” value in test [1] (IFN-γ dose-response (data not shown)) and in test [2] (IFN-γ dose-response) was 0.1 U/ml each time. Moreover, in test [2] (100 U/ml of recombinant human IFN-γ), the “time at which enhanced mda-9 expression is apparent” value was no more than 2 h.
